# From patent publication US10703764B2, “Benzopiperazine compositions as BET bromodomain inhibitors” (FORMA Therapeutics, Inc., priority 2013, dated 2020)
# Columns and labels:
# [1] = system: MV4-11 cells; test: Oncology cell growth assay (3-day proliferation, CellTiter-Glo); type: cell-based; conditions: Homo sapiens, MV4-11, 72 h, AML cell line MV4-11, 72 hours, compounds grouped by IC50 range, read-out: MV4-11 IC50 (inhibition of proliferation, gIC50)
# Outline: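 72 h, 37° C, 5% CO2; MV4-11, 3000 cells/well, RPMI 1640 + 10% FBS. Compound final 10, 3.3, 1.1, 0.37, 0.12, 0.041, 0.013, 0.0045 μM. Readout CellTiter-Glo luminescence; gIC50 by 4-parameter logistic fit, normalised to DMSO and no-cell background.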
# [2] = biological target: T1, BRD4 BD2 (Homo sapiens, UniProt O60885); test: AlphaScreen binding assay, BRD4 Bromodomain 2
# T1 construct: made in house
# Outline: (§1)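 An AlphaScreen competition format was used with His-BRD4 BD1 or BD2 and biotin-H4 K5/8/12/16-acetyl peptide, each at matched final levels of 50 nM (BD1) or 100 nM (BD2). Incubation in HEPES/NaCl buffer with 0.1% BSA and 0.01% Triton X-100 ran ≥1 h before IC50 determination.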
# [3] = biological target: T2, BRD4 BD1 (Homo sapiens, UniProt O60885); test: AlphaScreen binding assay, BRD4 Bromodomain 1
# T2 construct: made in house
# Outline: as §1
SMILES,IC50 [1] [nM],IC50 [2] [nM],IC50 [3] [nM]
"CC(=O)Nc1ccc2c(c1)N(C(C)=O)[C@@H](C)CN2C(=O)OC(C)C [Example I-200, Isopropyl (S)-6-acetamido-4-acetyl-3-methyl-3,4-dihydroquinoxaline-1(2H)-carboxylate]",> 500,50 to 500,1000 to 10000
"CC(=O)N1c2cc(NS(C)(=O)=O)ccc2N(C(=O)OC(C)C)C[C@@H]1C [Example I-201, Isopropyl (S)-4-acetyl-3-methyl-6-(methylsulfonamido)-3,4-dihydro quinoxaline-1(2H)-carboxylate]",> 500,> 500,> 10000
"COC(=O)Nc1ccc2c(c1)N(C(C)=O)[C@@H](C)CN2C(=O)OC(C)C [Example I-202, Isopropyl (S)-4-acetyl-6-((methoxycarbonyl)amino)-3-methyl-3,4-dihydro quinoxaline-1(2H)-carboxylate]",> 500,> 500,> 10000
"CC(=O)Nc1cc2c(cc1Br)N(C(=O)OC(C)C)C[C@H](C)N2C(C)=O [Example I-203, Isopropyl (S)-6-acetamido-4-acetyl-7-bromo-3-methyl-3,4-dihydro quinoxaline-1(2H)-carboxylate]",> 500,> 500,1000 to 10000
"COC(=O)Nc1cc2c(cc1-c1cnn(C3CC3)c1)N(C(=O)OC(C)C)C[C@H](C)N2C(C)=O [Example I-204, Isopropyl (S)-4-acetyl-7-(1-cyclopropyl-1H-pyrazol-4-yl)-6-((methoxycarbonyl)amino)-3-methyl-3,4-dihydroquinoxaline-1(2H)-carboxylate]",> 500,50 to 500,100 to 1000
"CC(=O)Nc1cc2c(cc1-c1cnn(CC(C)(C)O)c1)N(C(=O)OC(C)C)C[C@H](C)N2C(C)=O [Example I-205, Isopropyl (S)-6-acetamido-4-acetyl-7-(1-(2-hydroxy-2-methylpropyl)-1H-pyrazol-4-yl)-3-methyl-3,4-dihydroquinoxaline-1(2H)-carboxylate]",> 500,50 to 500,100 to 1000
"CC(=O)N1c2cc(N)c(-c3cnn(C4CC4)c3)cc2N(C(=O)OC(C)C)C[C@@H]1C [Example I-206, Isopropyl (S)-4-acetyl-6-amino-7-(1-cyclopropyl-1H-pyrazol-4-yl)-3-methyl-3,4-dihydroquinoxaline-1(2H)-carboxylate]",100 to 500,< 50,100 to 1000
"CC(=O)N1c2cc(F)c(-c3cnn(C4CC4)c3)cc2N(C(=O)OC(C)C)C[C@@H]1C [Example I-207, Isopropyl (S)-4-acetyl-7-(1-cyclopropyl-1H-pyrazol-4-yl)-6-fluoro-3-methyl-3,4-dihydroquinoxaline-1(2H)-carboxylate]",> 500,50 to 500,100 to 1000
"CC(=O)N1c2cc(Cl)c(-c3cnn(C4CC4)c3)cc2N(C(=O)OC(C)C)C[C@@H]1C [Example I-208, Isopropyl (S)-4-acetyl-6-chloro-7-(1-cyclopropyl-1H-pyrazol-4-yl)-3-methyl-3,4-dihydroquinoxaline-1 (2H)-carboxylate]",> 500,> 500,1000 to 10000
"CC(=O)N1c2cc(Br)c(-c3cnn(C4CC4)c3)cc2N(C(=O)OC(C)C)C[C@@H]1C [Example I-209, Isopropyl (S)-4-acetyl-6-bromo-7-(1-cyclopropyl-1H-pyrazol-4-yl)-3-methyl-3,4-dihydroquinoxaline-1(2H)-carboxylate]",> 500,> 500,1000 to 10000
"COc1cc2c(cc1-c1cnn(C3CC3)c1)N(C(=O)OC(C)C)C[C@H](C)N2C(C)=O [Example I-210, Isopropyl (S)-4-acetyl-7-(1-cyclopropyl-1H-pyrazol-4-yl)-6-methoxy-3-methyl-3,4-dihydroquinoxaline-1(2H)-carboxylate]",> 500,> 500,1000 to 10000
"CC(=O)N1c2cc(C#N)c(-c3cnn(C4CC4)c3)cc2N(C(=O)OC(C)C)C[C@@H]1C [Example I-211, Isopropyl (S)-4-acetyl-6-cyano-7-(1-cyclopropyl-1H-pyrazol-4-yl)-3-methyl-3,4-dihydroquinoxaline-1(2H)-carboxylate]",> 500,> 500,100 to 1000
"CC(=O)N1c2cc(C(N)=O)c(-c3cnn(C4CC4)c3)cc2N(C(=O)OC(C)C)C[C@@H]1C [Example I-212, Isopropyl (S)-4-acetyl-6-carbamoyl-7-(1-cyclopropyl-1H-pyrazol-4-yl)-3-methyl-3,4-dihydroquinoxaline-1(2H)-carboxylate]",100 to 500,50 to 500,100 to 1000
"CC(=O)N1c2cc(NS(C)(=O)=O)c(-c3cnn(C4CC4)c3)cc2N(C(=O)OC(C)C)C[C@@H]1C [Example I-213, Isopropyl (S)-4-acetyl-7-(1-cyclopropyl-1H-pyrazol-4-yl)-3-methyl-6-(methylsulfonamido)-3,4-dihydroquinoxaline-1(2H)-carboxylate]",> 500,> 500,> 10000
"CC(=O)Nc1cc2c(cc1-c1cnn(C3CC3)c1)N(C(=O)OC(C)C)C[C@H](C)N2C(C)=O [Example I-214, Isopropyl (S)-6-acetamido-4-acetyl-7-(1-cyclopropyl-1H-pyrazol-4-yl)-3-methyl-3,4-dihydroquinoxaline-1(2H)-carboxylate]",100 to 500,50 to 500,100 to 1000
"CNC(=O)Nc1cc2c(cc1-c1cnn(C3CC3)c1)N(C(=O)OC(C)C)C[C@H](C)N2C(C)=O [Example I-215, Isopropyl (S)-4-acetyl-7-(1-cyclopropyl-1H-pyrazol-4-yl)-3-methyl-6-(3-methylureido)-3,4-dihydroquinoxaline-1(2H)-carboxylate]",100 to 500,50 to 500,100 to 1000

SMILES,IC50 [1] [nM],IC50 [2] [nM],IC50 [3] [nM]
"CC(=O)N1c2cc(N)c(-c3ccc(S(C)(=O)=O)cc3)cc2N(C(=O)OC(C)C)C[C@@H]1C [Example I-216, Isopropyl (S)-4-acetyl-6-amino-3-methyl-7-(4-(methylsulfonyl)phenyl)-3,4-dihydroquinoxaline-1 (2H)-carboxylate]",> 500,> 500,1000 to 10000
"CC(=O)N1c2cc(Br)c(-c3ccc(S(C)(=O)=O)cc3)cc2N(C(=O)OC(C)C)C[C@@H]1C [Example I-217, Isopropyl (S)-4-acetyl-6-bromo-3-methyl-7-(4-(methylsulfonyl)phenyl)-3,4-dihydroquinoxaline-1(2H)-carboxylate]",> 500,> 500,1000 to 10000
"CC(=O)N1c2cc(Cl)c(-c3ccc(S(C)(=O)=O)cc3)cc2N(C(=O)OC(C)C)C[C@@H]1C [Example I-218, Isopropyl (S)-4-acetyl-6-chloro-3-methyl-7-(4-(methylsulfonyl)phenyl)-3,4-dihydroquinoxaline-1(2H)-carboxylate]",> 500,> 500,1000 to 10000
"CC(=O)N1c2cc(C#N)c(-c3ccc(S(C)(=O)=O)cc3)cc2N(C(=O)OC(C)C)C[C@@H]1C [Example I-219, Isopropyl (S)-4-acetyl-6-cyano-3-methyl-7-(4-(methylsulfonyl)phenyl)-3,4-dihydroquinoxaline-1(2H)-carboxylate]",> 500,> 500,1000 to 10000
CC(=O)N1c2ccc(-c3ccc(S(C)(=O)=O)cc3)cc2N(C(=O)Oc2ccccc2)C[C@@H]1C [Example I-223],< 100,< 50,100 to 1000
CCOC(=O)N1C[C@H](C)N(C(C)=O)c2ccc(-c3ccc(S(C)(=O)=O)cc3)cc21 [Example I-224],> 500,50 to 500,100 to 1000
CC(=O)N1c2ccc(-c3ccc(S(C)(=O)=O)cc3)cc2N(C(=O)Oc2ccccc2Cl)C[C@@H]1C [Example I-225],< 100,< 50,100 to 1000
COc1ccccc1OC(=O)N1C[C@H](C)N(C(C)=O)c2ccc(-c3ccc(S(C)(=O)=O)cc3)cc21 [Example I-227],< 100,< 50,100 to 1000
COC(=O)c1ccc(OC(=O)N2C[C@H](C)N(C(C)=O)c3ccc(-c4ccc(S(C)(=O)=O)cc4)cc32)cc1 [Example I-229],< 100,< 50,100 to 1000
CCCCOC(=O)N1C[C@H](C)N(C(C)=O)c2ccc(-c3ccc(S(C)(=O)=O)cc3)cc21 [Example I-231],100 to 500,50 to 500,100 to 1000
CC(=O)N1c2ccc(-c3ccc(S(C)(=O)=O)cc3)cc2N(C(=O)Oc2ccc(C)cc2)C[C@@H]1C [Example I-232],< 100,50 to 500,100 to 1000
COc1ccc(OC(=O)N2C[C@H](C)N(C(C)=O)c3ccc(-c4ccc(S(C)(=O)=O)cc4)cc32)cc1 [Example I-233],< 100,< 50,100 to 1000
CC(=O)N1c2ccc(-c3ccc(S(C)(=O)=O)cc3)cc2N(C(=O)Oc2ccc(F)cc2)C[C@@H]1C [Example I-234],< 100,< 50,100 to 1000
CC(=O)N1c2ccc(-c3ccc(S(C)(=O)=O)cc3)cc2N(C(=O)OC2CCCC2)C[C@@H]1C [Example I-236],> 500,> 500,1000 to 10000
CC(=O)N1c2ccc(-c3ccc(S(C)(=O)=O)cc3)cc2N(C(=O)Oc2cccc(C(F)(F)F)c2)C[C@@H]1C [Example I-237],100 to 500,< 50,1000 to 10000
